Data from EP0253697A2, “Medicament and medicament compositions for the treatment of infective diseases due to viruses, as well as for the treatment of tumours” (INSTITUT NATIONAL DE LA SANTE ET DE LA RECHERCHE MEDICALE …, priority 1986, dated 1988).

What was measured:
[1] = tested on: carcinome de tumeur mammaire (lignée MCF7); assay: DNA synthesis (3H-thymidine incorporation) in tumour cells; assay type: cell-based, humain
Excerpt: (§1) L'effet du GAH a été étudié sur diverses lignées cellulaires obtenues à partir de tumeurs humaines et fibroblastes de poumon foetal humain (MRC5).
(§2) - Ordonnées : incorporation de ^3H-thymidine (comptage de la radioactivité correspondante en coups par minute (CPM).

[2] = tested on: llgnée de tumeur d' Ewing; assay: as above; assay type: cell-based, humain
Excerpt: as §1, §2

mélanome = assay: as above; assay type: cell-based, humain
Excerpt: as §1, §2

[3] = tested on: carcinome du colon (lignée HT29); assay: as above; assay type: cell-based, humain
Excerpt: as §1, §2

[4] = tested on: cellules de tumeurs de Burkitt; assay: as above; assay type: cell-based, humain
Excerpt: as §1, §2

[5] = Growth, DNA synthesis and survival of normal MRC5 cells; assay type: cell-based, humain; conditions: human; normal MRC5 cells, Figure 6; read-out: doses sans mort cellulaire
Excerpt: as §1
(§3) La croissance des cellules MRC5 dans un milieu déprimé en glutamine est aussi arrêtée, avec, cependant, un décalage dans l'inhibition par rapport à l'effet du GAH. […] Il s'agit probablement de deux mécanismes d'action différents.
(§4) • - Abscisses : temps de culture des cellules MRC5 : 1. avec différentes conditions de culture • O témoin MRC5 milieu normal • milieu déprimé en glutamine • ? milieu normal avec D-glutamyl acide (GAH 2. après élimination des différentes drogues et addition • ? milieu normal MRC5 témoin • milieu avec glutamine 2mM • ? milieu normal • ? milieu GAH + glutamine 2mM • - Ordonnées : nombre de cellules vivantes.

cellules normales MRC5 = assay: as above; assay type: cell-based, humain
Excerpt: as §1, §3, §4

[6] = tested on: cellules (infectées ou non); assay: Toxicity for the cells (infected or not) in the antiviral experiments; assay type: cell-based
mélanome B16 = assay: Survival of mice inoculated with B16 melanoma; assay type: in vivo, souris; conditions: 10^6 cells IP; 1200 mg/kg/day days 1-4, 600 mg/kg/day days 8-11, 300 mg/kg/day days 16-19; Figure 9
Excerpt: (§5) Compte tenu des résultats in vitro, l'activité anti-tumorale de GAH a été étudiée sur deux modèles tumoraux murins : leucémie L1 210 et mélanome B16.
Pour le mélanome B16, maintenu par passage souscutanés successifs, la dose injectée par voie intra-péritonéale pour les essais thérapeutiques est de 10^6 cellules par souris.
(§6) Les résultats positifs qui ont été obtenus sont exprimés par le pourcentage d'augmentation de la survie, considérant comme significative une augmentation de 30%.
Courbe de survie des souris C5b16 inoculées avec les cellules de mélanome B16 (10^6 cellules dans 0,5 ml IP)après traitement avec GAH : 1200 mg/kg dose/jour, les jours 1, 2, 3, 4; 600 mg/kg dose/jour, les jours 8, 9, 10, 11; et 300 mg/kg dose/jour, les jours 16, 17, 18, 19 (les groupes traités et non traités sont de 6 animaux). - Abscisses : jours après l'inoculation de cellules tumorales - Ordonnées : pourcentage de souris vivantes

leucémie L1 210 [7] = assay: Survival of mice inoculated with L1 210 leukaemia; assay type: in vivo, souris DBA/2; conditions: 5x10^5 cells IP; 1200 mg/kg/day days 1-4, 600 mg/kg/day days 8-10; Figure 8
Excerpt: as §5
Pour la leucémie L1 210, maintenue par passage intra-péritonéal chez la souris DBA/2, le nombre de cellules utilisées pour les essais thérapeutiques est de 5.10^5 cellules par souris.
as §6
Courbe de survie des souris DBA/2-B6D2F1 inoculées avec L1 210 (5x10^5 cellules dans 0,5 ml IP) après traitement avec L-glutamique acide monohydroxamate : 1200 mg/kg dose/jour, les jours 1, 2, 3, 4; et 600 mg/kg dose/jour, les jours 8, 9, 10 (les groupes sont constitués de 8 souris.). - Abscisses : jours après l'inoculation de cellules tumorales - Ordonnées : pourcentage de souris vivantes.

virus Visna = assay: Reverse transcriptase activity, infected sheep embryo fibroblasts; assay type: cell-based, mouton; conditions: GAH present at the time of infection, versus untreated cells; Figure 1B
[8] = tested on: colonies métas- tasiantes du mélanome B 16; assay: Cytolytic effect on cells isolated from metastases in vitro; assay type: cell-based
leucémie L1 210 [9] = assay: DNA synthesis (3H-thymidine incorporation) in tumour cells; assay type: cell-based, murin; conditions: Figure 2
Excerpt: as §1
- Abscisses : temps de contact des différentes cellules avec le le L-glutamique acide y monohydroxamate : 1-L1210 • 2 - BL60 • 3 - NterDau • 4-B16
as §2

cellules de mélanome = assay: Survival of melanoma cells versus dose and contact time; assay type: cell-based
Description: Sur une lignée de mélanome prise comme exemple, on peut voir que l'effet inhibiteur est dépendant de la dose (Figure 3), mais également du temps de contact. Dès 2 heures de contact des cellules de mélanome avec 1,5 mM de GAH, il y a mort cellulaire, qui s'amplifie jusqu'à 72 heures de culture des cellules tumorales, puis les cellules échappent à cette inhibition (Figure 4). […] Ainsi, pour les cellules de mélanome, un contact de 30 heures avec 1,5 mM de GAH est nécessaire pour avoir une mort cellulaire complète à 72 heures, alors que 50 heures de contact sont nécessaires avec une concentration de drogue de 400 µM (Figure 5).
- Abscisses : temps de contact des cellules de mélanome avec différentes concentrations de GAH : • 400 µM; ○ 1 mM; . 1,5 mM - Ordonnées : pourcentage de survie des cellules de mélanome à 72 heures.

[10] = tested on: virus du sarcome de Rous (RSV, souche B77); assay: Reverse transcriptase activity in culture medium and focus formation, infected chicken fibroblasts; assay type: cell-based, poulet
Excerpt: Il a été également montré que le GAH provoque aussi une importante inhibition de la multiplication des virus appartenant à la famille des rétrovirus (virus à ARN possédant une activité dite de transcriptase inverse, c'est-à-dire une ADN polymé- rase-ARN dépendante). Ceci a été démontré avec le virus du sarcome de Rous (RSV, virus oncogène, sous-famille oncovirinae) et avec le virus visna (virus lytique, sous-famille lentivirinae à laquelle appartient aussi le H.I.V.). • 1 - Des fibroblastes de poulet, en passage secondaire, sont ensemencés et traités, ou non, par le GAH à diverses concentrations. Ensuite, les cellules sont infectées par le RSV (souche B77). Le milieu de culture des cellules infectées est recueilli à différents temps post- infection et l'activité transcriptase inverse a été mesurée, cette mesure étant considérée généralement comme un reflet de la libération des particules virales dans les milieux de culture. […] Il est intéressant de signaler que, comme dans le cas des hespesvirus, l'activité antivirable apparaît à la même dose de GAH capable de provoquer l'arrêt de la prolifération cellulaire, ce qui est en accord avec la notion d'une action du GAH agissant en premier lieu au niveau cellulaire.

virus de la rougeole = assay: Inhibition of viral lysis plaque formation (PFU) in infected VERO cells; assay type: cell-based; conditions: in vitro, RNA virus
Excerpt: (§7) Des cellules VERO (lignée de cellules "normales") ont été infectées par le virus de l'herpès simplex du type 1 (HSV.1) ou par le virus de la rougeole à une multiplicité d'infection d'une particule infectieuse par cellule. Les cellules infectées ont été traitées par GAH aux doses indiquées sur la Figure 1. L'inhibition observée, emprimée en logarithme d'inhibition de la formation de plages de lyse cellulaire par le virus (PFU-"Plage Forming Unit") par ml de milieu, semble apparaître brusquement après avoir dépassé une concentration "seuil" située autour de 600 lim. par litre de milieu cellulaire. Le fait que la concentration optimale soit la même pour les deux virus testés, qui, comme indiqué ci-dessus, sont très différents, est en faveur d'une action de la substance au niveau cellulaire, action capable d'éveiller un état de résistance envers les virus infectants.

[11] = tested on: virus de l'herpès simplex du type 1 (HSV.1); assay: as above; assay type: cell-based; conditions: in vitro, DNA virus
Excerpt: as §7

[12] = tested on: cellules de lymphome murin RBL5; assay: DNA synthesis (3H-thymidine incorporation) in tumour cells; assay type: cell-based

Structure (SMILES): N[C@@H](CCC(=O)NO)C(=O)O [GAH, L-glutamique acide y monohydroxamate]
- effet sur la synthèse de l'ADN [1]: effet inhibiteur total
- effet sur la synthèse de l'ADN [2]: effet inhibiteur total
- effet sur la synthèse de l'ADN (mélanome): effet inhibiteur total
- effet sur la synthèse de l'ADN [3]: effet inhibiteur total
- effet sur la synthèse de l'ADN [4]: effet inhibiteur total
- MNTC [5]: ≤ 800 µM
- synthèse de l'ADN des cellules normales MRC5 (cellules normales MRC5): arrêt de synthèse de l'ADN
- réversion de la croissance par addition de glutamine (cellules normales MRC5; GAH-treated MRC5 cells, glutamine 2mM added (Figure 7)): ne reverse pas
- effet sur les cellules normales (cellules normales MRC5; reversible after removal of the drug): effet cytostatique
- toxicité pour les cellules [6]: faible taux, voire l'absence, de toxicité
- activité antitumorale (augmentation de la survie) (mélanome B16): activité antitumorale
- activité antitumorale (augmentation de la survie) (leucémie L1 210 [7]): activité antitumorale
- activité transcriptase inverse (virus Visna): diminution considérable
- effet sur des cellules isolées de métastases [8]: effet cytolytique
- effet sur la synthèse de l'ADN (leucémie L1 210 [9]): effet inhibiteur total
- temps de contact nécessaire pour une mort cellulaire complète à 72 heures (cellules de mélanome; 400 µM GAH (Figure 5)): 50 heures
- temps de contact nécessaire pour une mort cellulaire complète à 72 heures (cellules de mélanome; 1,5 mM GAH (Figure 5)): 30 heures
- temps de contact à partir duquel il y a mort cellulaire (cellules de mélanome; 1,5 mM GAH, death from this contact time on, increasing up to 72 h of culture (Figure 4)): 2 heures
- activité transcriptase inverse dans le milieu de culture ([10]; GAH 1mM present at the time of infection, chicken fibroblasts, Figure 1A): indétectable
- formation de foyers de cellules transformées par le RSV ([10]; GAH-treated cultures, untreated controls show foci after three days): aucune formation de foyers
- inhibition du virus (virus de la rougeole): inhibition très significative
- inhibition du virus [11]: inhibition très significative
- effet sur la synthèse de l'ADN [12]: effet inhibiteur total
